Experimental data from patent US9783536B2, “Nitrogen-containing heterocyclic compound or salt thereof” (FUJIFILM Corporation, priority 2013, dated 2017).
Counter-ions that a name gives are not always drawn. Like-named read-outs stand apart in the source and are kept apart here.

How the values were obtained:
[1] = target: T1, GST fusion human ERK2 protein (Homo sapiens, UniProt P28482); assay: ERK2 enzyme assay (2); format: biochemical; details: read-out: ERK2 enzyme inhibitory activity (2)
T1 construct: purchased Carna Biosciences, Inc; host or cells: E. coli expression system
T1 sequence (P28482 whole entry, the tested form may be a part): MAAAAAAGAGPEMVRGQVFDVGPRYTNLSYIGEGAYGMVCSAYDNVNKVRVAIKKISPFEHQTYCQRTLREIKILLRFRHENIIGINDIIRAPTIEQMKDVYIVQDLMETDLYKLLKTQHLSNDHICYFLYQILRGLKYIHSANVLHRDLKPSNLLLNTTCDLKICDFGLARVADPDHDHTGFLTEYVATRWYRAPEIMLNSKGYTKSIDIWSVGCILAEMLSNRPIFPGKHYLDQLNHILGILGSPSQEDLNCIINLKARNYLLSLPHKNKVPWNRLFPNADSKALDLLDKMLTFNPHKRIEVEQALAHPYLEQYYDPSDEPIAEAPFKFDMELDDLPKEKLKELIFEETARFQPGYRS
Summary of the method: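 IC50 values come from mobility-shift measurement of phosphorylated versus unphosphorylated 5-FAM peptide substrate after EDTA quench. Beforehand, compound and 1.25 nmol/L E. coli-expressed GST–human ERK2 stood 15 min at room temperature (pH 7.5), then 1 mmol/L ATP and 4.25 μmol/L substrate (final) were added for 120 min at 25 °C.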

human PI3Kα protein = target: T2, human PI3Kα protein (Homo sapiens, UniProt P42336); assay: PI3Kα enzyme assay (ADP-Glo); format: biochemical; details: read-out: PI3Kα enzyme inhibitory activity
T2 construct: purchased Carna Biosciences, Inc; host or cells: baculovirus expression system
T2 sequence (P42336 whole entry): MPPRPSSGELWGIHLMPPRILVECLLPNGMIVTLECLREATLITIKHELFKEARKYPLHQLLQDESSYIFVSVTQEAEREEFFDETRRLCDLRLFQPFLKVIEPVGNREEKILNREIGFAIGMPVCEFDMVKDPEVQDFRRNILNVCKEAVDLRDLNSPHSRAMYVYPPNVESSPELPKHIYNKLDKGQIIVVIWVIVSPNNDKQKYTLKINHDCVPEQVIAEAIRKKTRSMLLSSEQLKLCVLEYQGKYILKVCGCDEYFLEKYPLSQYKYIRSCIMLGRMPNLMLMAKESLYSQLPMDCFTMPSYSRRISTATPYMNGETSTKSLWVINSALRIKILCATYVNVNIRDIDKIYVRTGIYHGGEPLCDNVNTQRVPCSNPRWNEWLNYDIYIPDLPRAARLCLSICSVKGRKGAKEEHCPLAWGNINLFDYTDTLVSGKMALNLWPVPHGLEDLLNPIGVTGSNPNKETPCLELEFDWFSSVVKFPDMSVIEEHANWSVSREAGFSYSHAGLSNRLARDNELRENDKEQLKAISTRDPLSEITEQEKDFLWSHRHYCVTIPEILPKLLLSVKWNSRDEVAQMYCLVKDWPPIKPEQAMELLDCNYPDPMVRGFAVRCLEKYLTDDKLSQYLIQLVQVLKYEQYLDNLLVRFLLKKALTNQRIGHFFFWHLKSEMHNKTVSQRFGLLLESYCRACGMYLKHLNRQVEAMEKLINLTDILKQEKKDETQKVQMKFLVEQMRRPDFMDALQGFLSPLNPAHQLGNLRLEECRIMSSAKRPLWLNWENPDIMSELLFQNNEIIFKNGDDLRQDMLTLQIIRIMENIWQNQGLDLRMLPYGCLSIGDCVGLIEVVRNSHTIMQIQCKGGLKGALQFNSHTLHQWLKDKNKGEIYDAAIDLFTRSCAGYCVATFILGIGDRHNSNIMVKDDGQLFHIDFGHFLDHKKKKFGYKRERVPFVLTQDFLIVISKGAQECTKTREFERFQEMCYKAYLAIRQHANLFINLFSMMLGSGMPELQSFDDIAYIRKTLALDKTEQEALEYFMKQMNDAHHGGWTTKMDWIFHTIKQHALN
T2 sequence (P27986 whole entry partner): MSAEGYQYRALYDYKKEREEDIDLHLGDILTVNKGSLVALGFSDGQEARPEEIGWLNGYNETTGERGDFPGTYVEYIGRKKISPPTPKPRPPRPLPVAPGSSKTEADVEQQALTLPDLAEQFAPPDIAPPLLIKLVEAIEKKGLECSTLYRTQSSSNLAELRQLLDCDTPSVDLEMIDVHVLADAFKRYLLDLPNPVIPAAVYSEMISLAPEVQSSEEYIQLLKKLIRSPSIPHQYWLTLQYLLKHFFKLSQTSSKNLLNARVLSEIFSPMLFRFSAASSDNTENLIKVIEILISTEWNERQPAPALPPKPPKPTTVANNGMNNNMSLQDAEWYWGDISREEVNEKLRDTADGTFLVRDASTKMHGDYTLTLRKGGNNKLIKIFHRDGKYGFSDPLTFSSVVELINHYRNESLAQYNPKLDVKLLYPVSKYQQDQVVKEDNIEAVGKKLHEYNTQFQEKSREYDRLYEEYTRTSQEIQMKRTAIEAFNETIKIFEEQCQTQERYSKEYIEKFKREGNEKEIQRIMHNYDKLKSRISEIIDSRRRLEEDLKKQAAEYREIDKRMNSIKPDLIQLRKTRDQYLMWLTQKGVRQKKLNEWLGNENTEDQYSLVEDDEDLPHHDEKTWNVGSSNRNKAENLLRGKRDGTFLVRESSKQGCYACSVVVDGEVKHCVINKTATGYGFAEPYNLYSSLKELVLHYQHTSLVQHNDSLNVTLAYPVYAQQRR
Summary of the method: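 Biotinylated human PI3Kα (baculovirus-expressed, 4.5 nmol/L) pre-incubated 15 min with compound in Tris-HCl pH 7.5, MgCl2, BSA; reaction 60 min at 25° C with 50 μmol/L PIP2 and 100 μmol/L ATP final. ADP quantified by ADP-Glo luminescence; IC50 calculated.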

IC50 ([1]; ERK2 enzyme assay (2))	IC50 (human PI3Kα protein)	IC50 [1]	Structure (SMILES)
< 1000 nM	< 1000 nM	–	CC(C)c1cnnc(Nc2ccc3ncc(-c4cnn(CCC5CCNCC5)c4)cc3n2)c1 [Example 0488, hydrochloric acid salt of N-(5-isopropylpyridazin-3-yl)-7-(1-(2-(piperidin-4-yl)ethyl)-1H-pyrazol-4-yl)-1,5-naphthyridine-2-amine]
1000 to 10000 nM	< 1000 nM	–	CC(=O)Nc1cnc2ccc(Nc3cc(C(C)C)cnn3)nc2c1 [Example 0625, N-(6-((5-isopropylpyridazin-3-yl)amino)-1,5-naphthyridin-3-yl)acetamide]
–	< 1000 nM	< 1000 nM	CC(C)c1cnnc(Nc2ccc3ncc(-c4cn(C)nc4Br)cc3n2)c1 [Example 0931]
< 1000 nM	1000 to 10000 nM	–	C=Cc1cnc2ccc(Nc3cc(C(C)C)cnn3)nc2c1 [Example 0638, N-(5-isopropylpyridazin-3-yl)-7-vinyl-1,5-naphthyridine-2-amine]
1000 to 10000 nM	1000 to 10000 nM	–	CC(C)c1cnnc(Nc2ccc3ncc(NS(C)(=O)=O)cc3n2)c1 [Example 0840, N-(6-((5-isopropylpyridazin-3-yl)amino)-1,5-naphthyridin-3-yl)methane sulfonamide]
< 1000 nM	1000 to 10000 nM	–	CC(C)c1cnnc(Nc2ccc3ncc(-c4cn(C)nc4CN(C)c4cccnc4)cc3n2)c1 [Example 0808]
–	< 1000 nM	1000 to 10000 nM	Cc1nn(C)cc1-c1cnc2ccc(Nc3cn(C(C)C)cn3)nc2c1 [Example 0950, 7-(1,3-dimethyl-1H-pyrazol-4-yl)-N-(1-isopropyl-1H-imidazol-4-yl)-1,5-naphthyridine-2-amine]
< 1000 nM	< 1000 nM	–	CC(C)c1cnnc(Nc2ccc3ncc(-c4cn(C)nc4Nc4cccnc4)cc3n2)c1 [Example 0469]
< 1000 nM	1000 to 10000 nM	–	CC(C)c1cnnc(Nc2ccc3ncc(N4CCS(=O)(=O)CC4)cc3n2)c1 [Example 0857]
< 1000 nM	< 1000 nM	–	CC(C)c1cnnc(Nc2ccc3ncc(N4CCC(F)(F)C4)cc3n2)c1 [Example 0893]
< 1000 nM	< 1000 nM	–	CCC(CC)c1cnnc(Nc2ccc3ncc(-c4cnn(C)c4)cc3n2)c1 [Example 0585]
1000 to 10000 nM	1000 to 10000 nM	–	Cc1nn(C)cc1-c1cnc2ccc(Nc3cc(C(C)C)no3)nc2c1 [Example 0848, N-(7-(1,3-dimethyl-1H-pyrazol-4-yl)-1,5-naphthyridin-2-yl)-3-isopropylisoxazole-5-amine]
< 1000 nM	< 1000 nM	–	CC(C)c1cnnc(Nc2ccc3ncc(-c4cn(C)nc4-c4ccc(N)nc4)cc3n2)c1 [Example 0461, 7-(3-(6-aminopyridin-3-yl)-1-methyl-1H-pyrazol-4-yl)-N-(5-isopropylpyridazin-3-yl)-1,5-naphthyridine-2-amine]
< 1000 nM	< 1000 nM	–	CC(C)c1cnnc(Nc2ccc3ncc(-c4cn(C)nc4NC4CCOCC4)cc3n2)c1 [Example 0832]
< 1000 nM	< 1000 nM	–	CC(C)c1cnnc(Nc2ccc3ncc(-c4cn(C)nc4COC4CNC4)cc3n2)c1 [Example 0822, 7-(3-((Azetidin-3-yloxy)methyl)-1-methyl-1H-pyrazol-4-yl)-N-(5-isopropylpyridazin-3-yl)-1,5-naphthyridine-2-amine]
1000 to 10000 nM	< 1000 nM	–	CC(C)c1cnnc(Nc2ccc3ncc(NC(=O)COCc4ccccc4)cc3n2)c1 [Example 0654, 2-(benzyloxy)-N-(6-((5-isopropylpyridazin-3-yl)amino)-1,5-naphthyridin-3-yl)acetamide]
< 1000 nM	< 1000 nM	–	CC(C)c1cnnc(Nc2ccc3ncc(-c4cnn(CCOC5CNC5)c4)cc3n2)c1 [Example 0740, 7-(1-(2-(azetidin-3-yloxy)ethyl)-1H-pyrazol-4-yl)-N-(5-isopropylpyridazin-3-yl)-1,5-naphthyridine-2-amine]
< 1000 nM	< 1000 nM	–	CC(C)c1cnnc(Nc2ccc3ncc(-c4cnn(CC5CC5)c4)cc3n2)c1 [Example 0581]
–	< 1000 nM	< 1000 nM	Cc1nn(C)cc1-c1cnc2ccc(Nc3cc(CS(=O)(=O)N(C)C)cnn3)nc2c1 [Example 0925, 1-(6-((7-(1,3-Dimethyl-1H-pyrazol-4-yl)-1,5-naphthyridin-2-yl)amino)pyridazin-4-yl)-N,N-dimethylmethane sulfonamide]
< 1000 nM	< 1000 nM	–	CC(C)c1cnnc(Nc2ccc3ncc(-c4cn(C)nc4-c4cnn(C)c4)cc3n2)c1 [Example 0582]
1000 to 10000 nM	< 1000 nM	–	CC(C)c1cnnc(Nc2ccc3ncc(N4CCN(C)C(=O)C4)cc3n2)c1 [Example 0887]
< 1000 nM	< 1000 nM	–	CC(C)c1cnnc(Nc2ccc3ncc(-c4cn(C)nc4-c4ccc(OCCN(C)C)cc4)cc3n2)c1 [Example 0774]
< 1000 nM	< 1000 nM	–	COc1ccc(Cn2cc(-c3cnc4ccc(Nc5cc(C(C)C)cnn5)nc4c3)cn2)cn1 [Example 0453, N-(5-isopropylpyridazin-3-yl)-7-(1-((6-methoxypyridin-3-yl)methyl)-1H-pyrazol-4-yl)-1,5-naphthyridine-2-amine]

IC50 ([1]; ERK2 enzyme assay (2))	IC50 (human PI3Kα protein)	IC50 [1]	Structure (SMILES)
< 1000 nM	< 1000 nM	–	CC(C)c1cnnc(Nc2ccc3ncc(-c4cnn(CCOC5CN(C)C5)c4)cc3n2)c1 [Example 0741, N-(5-isopropylpyridazin-3-yl)-7-(1-(2-((1-methylazetidin-3-yl)oxy)ethyl)-1H-pyrazol-4-yl)-1,5-naphthyridine-2-amine]
< 1000 nM	< 1000 nM	–	CC(C)c1cnnc(Nc2ccc3ncc(-c4cnn(CCN5CC(O)C5)c4)cc3n2)c1 [Example 0612]
< 1000 nM	< 1000 nM	–	CC(C)c1cnnc(Nc2ccc3ncc(-c4cnn(Cc5cccc([N+](=O)[O-])c5)c4)cc3n2)c1 [Example 0711]
1000 to 10000 nM	1000 to 10000 nM	–	CC(C)c1cnnc(Nc2ccc3ncc(NC4(C)CCC4)cc3n2)c1 [Example 0888]
< 1000 nM	< 1000 nM	–	COCC(=O)N1CCC(Cn2cc(-c3cnc4ccc(Nc5cc(C(C)C)cnn5)nc4c3)cn2)CC1 [Example 0537]
–	< 1000 nM	< 1000 nM	CC(C)c1cnnc(Nc2ccc3ncc(-c4cnn(CC#N)c4)cc3n2)c1 [Example 0928, 2-(4-(6-((5-isopropylpyridazin-3-yl)amino)-1,5-naphthyridin-3-yl)-1H-pyrazol-1-yl)acetonitrile]
< 1000 nM	< 1000 nM	–	CC(C)c1cnnc(Nc2ccc3ncc(-c4cnn(CCCN(C)CC(=O)OC(C)(C)C)c4)cc3n2)c1 [Example 0661]
< 1000 nM	< 1000 nM	–	CC(C)c1cnnc(Nc2ccc3ncc(-c4cnn(Cc5cncnc5)c4)cc3n2)c1 [Example 0722]
–	< 1000 nM	< 1000 nM	CC(C)c1cnnc(Nc2ccc3ncc(-c4cn(C)nc4NC4CCOC4)cc3n2)c1 (stereo not drawn) [Example 0940]
< 1000 nM	< 1000 nM	–	CC(C)c1cnnc(Nc2ccc3ncc(N4CCN(S(C)(=O)=O)CC4)cc3n2)c1 [Example 0861]
1000 to 10000 nM	1000 to 10000 nM	–	CC(C)c1cnnc(Nc2ccc3ncc(C(=O)NCCCCO)cc3n2)c1 [Example 0664]
< 1000 nM	< 1000 nM	–	COCC(C)c1cnnc(Nc2ccc3ncc(-c4cn(C)nc4C)cc3n2)c1 (stereo not drawn) [Example 0786, 7-(1,3-dimethyl-1H-pyrazol-4-yl)-N-(5-(1-methoxypropan-2-yl)pyridazin-3-yl)-1,5-naphthyridine-2-amine]
< 1000 nM	1000 to 10000 nM	–	COC1CCN(c2cnc3ccc(Nc4cc(C(C)C)cnn4)nc3c2)C1 (stereo not drawn) [Example 0895]
–	< 1000 nM	< 1000 nM	CC(C)c1cnnc(Nc2ccc3ncc(-c4cnn(C)c4)c(N4CCOCC4)c3n2)c1 [Example 0955, N-(5-isopropylpyridazin-3-yl)-7-(1-methyl-1H-pyrazol-4-yl)-8-morpholino-1,5-naphthyridine-2-amine]
< 1000 nM	< 1000 nM	–	Cc1cncc(-c2nn(C)cc2-c2cnc3ccc(Nc4cc(C(C)C)cnn4)nc3c2)c1 [Example 0555]
< 1000 nM	< 1000 nM	–	CC(C)c1cnnc(Nc2ccc3ncc(-c4cn(C)nc4COC4CN(C(=O)OC(C)(C)C)C4)cc3n2)c1 [Example 0821, tert-Butyl 3-((4-(6-((5-isopropylpyridazin-3-yl)amino)-1,5-naphthyridin-3-yl)-1-methyl-1H-pyrazol-3-yl)methoxy)azetidine-1-carboxylate]
< 1000 nM	< 1000 nM	–	Cc1nn(C)cc1-c1cnc2ccc(Nc3cc(CC(C)C)cnn3)nc2c1 [Example 0790]
< 1000 nM	< 1000 nM	–	CC(C)c1cnnc(Nc2ccc3ncc(-c4cn(C)nc4-c4ccnc(OCCN(C)C)c4)cc3n2)c1 [Example 0751]
< 1000 nM	< 1000 nM	–	CC(=O)N1CCN(CCCn2cc(-c3cnc4ccc(Nc5cc(C(C)C)cnn5)nc4c3)cn2)CC1 [Example 0434]
< 1000 nM	1000 to 10000 nM	–	CC(C)c1cnnc(Nc2ccc3ncc(-c4cnccn4)cc3n2)c1 [Example 0606]
< 1000 nM	< 1000 nM	–	CC(C)c1cnnc(Nc2ccc3ncc(-c4cnn(CCCCl)c4)cc3n2)c1 [Example 0468]
< 1000 nM	1000 to 10000 nM	–	CC(C)c1cnnc(Nc2ccc3ncc(N4CCCC4)cc3n2)c1 [Example 0846, N-(5-isopropylpyridazin-3-yl)-7-(pyrrolidin-1-yl)-1,5-naphthyridine-2-amine]
